Data as given in US20240025862A1, “SUBSTITUTED N-PHENYLURACILS AND SALTS THEREOF, AND USE THEREOF AS HERBICIDAL ACTIVE SUBSTANCES” (Bayer Aktiengesellschaft, priority 2020, published 2024).

How the values were obtained:
Format in all cases: in vivo
[1] = system: Abutilon theophrasti (ABUTH); assay: Post-emergence herbicidal action, greenhouse pot test; settings: rated visually after about 3 weeks vs untreated controls, 100% = plants have died
Procedure, shortened: (§1)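 Activity was scored by eye about 3 weeks after treatment against untreated plants, where 100% means dead plants and 0% means no difference. Plants at the one-leaf stage received a foliar spray of WP or EC formulations in water plus 0.5% additive (600 l/ha, up to 20 g/ha). Plants were grown in sandy loam pots in a greenhouse for 2–3 weeks before spraying.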

[2] = system: Amaranthus retroflexus (AMARE); assay: as above; settings: rated visually after about 3 weeks vs untreated controls, 100% = plants have died
Procedure, shortened: as §1

[3] = system: Pharbitis purpurea (PHBPU); assay: as above
Procedure, shortened: as §1

[4] = system: Polygonum convolvulus (POLCO); assay: as above
Procedure, shortened: as §1

Stellaria media (STEME) = assay: as above
Procedure, shortened: as §1

Veronica persica (VERPE) = assay: as above
Procedure, shortened: as §1

Viola tricolor (VIOTR) = assay: as above
Procedure, shortened: as §1

[5] = system: Alopecurus myosuroides (ALOMY); assay: Post-emergence herbicidal action, greenhouse pot test (also comparative test C); settings: 20 g/ha, rated visually after about 3 weeks vs untreated controls, 100% = plants have died
Procedure, shortened: (§2)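 Green parts of one-leaf-stage plants are sprayed at 600 l/ha with formulated compound plus 0.5% additive, then kept under optimum greenhouse conditions for about 3 weeks. Damage is scored visually, where 100% means dead plants and 0% means no difference from controls.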

[6] = system: Matricaria inodora (MATIN); assay: as above
Procedure, shortened: as §2

Setaria viridis (SETVI) = assay: as above; settings: for Post-emergence action against SETVI: 20 g/ha
Procedure, shortened: as §2

Brassica napus (BRSNW) = assay: Post-emergence crop plant compatibility, greenhouse pot test; settings: 1.25 g/ha, vs untreated controls
Procedure, shortened: (§3)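 Compatibility was scored as visual % effect against untreated controls about 3 weeks after spraying green plant parts at the one-leaf stage. Formulations (WP/EC) were applied in aqueous form with 0.5% additive, 600 l/ha, to greenhouse-grown pot plants.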

Glycine max (GLXMA) = assay: as above
Procedure, shortened: as §3

Zea mays (ZEAMX) = assay: as above; settings: 1.25 g/ha, vs untreated controls
Procedure, shortened: as §3

Oryza sativa (ORYSA) = assay: Post-emergence crop plant compatibility, greenhouse pot test (also comparative test C); settings: for Post-emergence action against ORYSA (crop plant compatibility): vs untreated controls; for Post-emergence action against ORYSA in %: 20 g/ha, crop plant compatibility
Procedure, shortened: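 Visual damage versus untreated plants (0% = like control, 100% = plants died) was scored about 3 weeks after a post-emergence spray in greenhouse pots. Treatment: one-leaf stage, WP or EC in water at 600 l/ha with 0.5% additive; a/b/c mark different dosages on the same crop.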

[7] = system: Echinochloa crus-galli (ECHCG); assay: Post-emergence herbicidal action, greenhouse pot test (also comparative test C); settings: dosage 20 g/ha
Procedure, shortened: as §2

[8] = system: Triticum aestivum (TRZAS); assay: Post-emergence crop plant compatibility, greenhouse pot test; settings: vs untreated controls
Procedure, shortened: as §3

Structure (SMILES) | Post-emergence action at 1.25 g/ha against ABUTH in % [1] [%] | Post-emergence action at 5 g/ha against ABUTH in % [1] [%] | Post-emergence action at 20 g/ha against ABUTH in % [1] [%] | Post-emergence action at 1.25 g/ha against AMARE in % [2] [%] | Post-emergence action at 5 g/ha against AMARE in % [2] [%] | Post-emergence action at 20 g/ha against AMARE in % [2] [%] | Post-emergence action against PHBPU in % ([3]; dosage 5 g/ha) [%] | Post-emergence action against PHBPU in % ([3]; dosage 20 g/ha) [%] | Post-emergence action against POLCO in % ([4]; dosage 5 g/ha) [%] | Post-emergence action against POLCO in % ([4]; dosage 20 g/ha) [%] | Post-emergence action against STEME (Stellaria media (STEME); 5 g/ha) [%] | Post-emergence action against STEME (Stellaria media (STEME); 20 g/ha) [%] | Post-emergence action against VERPE (Veronica persica (VERPE); 5 g/ha) [%] | Post-emergence action against VERPE (Veronica persica (VERPE); 20 g/ha) [%] | Post-emergence action against VIOTR (Viola tricolor (VIOTR); 1.25 g/ha) [%] | Post-emergence action against VIOTR (Viola tricolor (VIOTR); 5 g/ha) [%] | Post-emergence action against VIOTR (Viola tricolor (VIOTR); 20 g/ha) [%] | Post-emergence action at 20 g/ha against ALOMY in % [5] [%] | Post-emergence action against MATIN in % ([6]; dosage 5 g/ha) [%] | Post-emergence action against MATIN in % ([6]; dosage 20 g/ha) [%] | also measured
CC(Oc1ccccc1Sc1cc(-n2c(=O)cc(C(F)(F)F)n(C)c2=O)c(F)cc1Cl)C(=O)OCCO (racemic) [I.2-58] | 100 | 100 | 100 | 90 | 100 | 100 | 80 | 100 | 100 | 100 | 100 | 100 | 80 | 100 | 100 | 100 | 100 | 80 | 80 | 90 | Post-emergence action against POLCO in % ([4]; dosage 1.25 g/ha): 100%; Post-emergence action against SETVI (Setaria viridis (SETVI)): 100%; Post-emergence action against SETVI in % (Setaria viridis (SETVI); dosage 1.25 g/ha): 100%; Post-emergence action against SETVI in % (Setaria viridis (SETVI); dosage 5 g/ha): 100%; Post-emergence action against BRSNW (crop plant compatibility) (Brassica napus (BRSNW)): 20%; Post-emergence action against GLXMA in % (Glycine max (GLXMA); 1.25 g/ha): 10%; Post-emergence action against GLXMA in % (Glycine max (GLXMA); 5 g/ha): 10%; Post-emergence action against ZEAMX (crop plant compatibility) (Zea mays (ZEAMX)): 10%; Post-emergence action against ORYSA (crop plant compatibility) (Oryza sativa (ORYSA); 1.25 g/ha): 10%; Post-emergence action against ORYSA (crop plant compatibility) (Oryza sativa (ORYSA); 5 g/ha): 10%; Post-emergence action against ORYSA in % (Oryza sativa (ORYSA)): 20%
CCOCCOC(=O)C(C)Oc1ccccc1Sc1cc(-n2c(=O)cc(C(F)(F)F)n(C)c2=O)c(F)cc1Cl (racemic) [I.2-2] | 80 | 100 | 100 | 100 | 100 | 100 | 100 | 100 | 100 | 100 | 100 | 100 | 100 | 100 | 100 | 100 | 100 | 80 | 80 | 100 | Post-emergence action against PHBPU in % ([3]; dosage 1.25 g/ha): 100%; Post-emergence action against VERPE (Veronica persica (VERPE); 1.25 g/ha): 100%; Post-emergence action against ECHCG in % [7]: 90%; Post-emergence action against SETVI (Setaria viridis (SETVI)): 100%; Post-emergence action against SETVI in % (Setaria viridis (SETVI); dosage 1.25 g/ha): 100%; Post-emergence action against SETVI in % (Setaria viridis (SETVI); dosage 5 g/ha): 100%; Post-emergence action against BRSNW (crop plant compatibility) (Brassica napus (BRSNW)): 10%; Post-emergence action against GLXMA in % (Glycine max (GLXMA); 1.25 g/ha): 0%; Post-emergence action against GLXMA in % (Glycine max (GLXMA); 5 g/ha): 0%; Post-emergence action against GLXMA in % (Glycine max (GLXMA); 20 g/ha): 10%; Post-emergence action against TRZAS (crop plant compatibility) ([8]; 1.25 g/ha): 20%; Post-emergence action against TRZAS (crop plant compatibility) ([8]; 5 g/ha): 20%; Post-emergence action against ORYSA (crop plant compatibility) (Oryza sativa (ORYSA); 1.25 g/ha): 10%; Post-emergence action against ORYSA (crop plant compatibility) (Oryza sativa (ORYSA); 5 g/ha): 10%; Post-emergence action against ORYSA in % (Oryza sativa (ORYSA)): 20%
